From PubChem BioAssay AID2060495 (Molecular Pharmacology Branch, DTP, NCI, 2025)
Where “and” joins values, the source holds several entries; their conditions need not be identical. Equal entries are not always repeated.

System: 521955-158-R2-J5-PDC complex spheroid viability
Assay: Anticancer human tumor 521955-158-R2-J5-PDC patient-derived pancreatic carcinoma cell line growth inhibition [GQUAD]
Settings: for viability, T/C: stronger effect = lower value
Description: DNA G-quadruplex Stabilizer Agents in Combinations in Complex Spheroids
A high-throughput screen of multi-cell type tumor spheroids was designed to identify active combinations of DNA G-quadruplex stabilizer agents and targeted small molecules. Complex spheroids include a stromal component modeled by human endothelial cells (HUVEC) and fibroblasts modeled by human mesenchymal stem cells (MSCs). The concentration ranges selected for each drug and investigational agent were based upon clinically achievable concentrations if the clinical Cmax of the agent was known.
Compounds. The drugs and investigational agents: pidnarulex (CX-5461; NSC782164), APTO-253 (NSC789042), BRACO-19 (NSC847499), peposertib (NSC802822), ceralasertib (NSC780249), elimusertib (NSC800525), camonsertib (NSC841442), AZD-1390 (NSC803789), olaparib (NSC753686), talazoparib (NSC767125), ART-558 (NSC835418), sotorasib (NSC818433), MRTX-1133 (NSC836407), SN-38 (NSC673596), topotecan (NSC609699), etoposide (NSC141540), doxorubicin (NSC123127), gemcitabine (NSC613327), 5-fluorouracil (NSC19893), paclitaxel (NSC125973), vemurafenib (NSC761431), panobinostat (NSC761190), R-306465 (JNJ-16241199; NSC773264), adavosertib (NSC754352), TP-3654 (NSC805149), carboplatin (NSC241240), KSQ-4279 (NSC840948), and staurosporine (NSC755774) were obtained from the National Cancer Institute (NCI) Developmental Therapeutics Program Chemical Repository (34). The FDA-approved anticancer drug set is available from the NCI Developmental Therapeutics Program. […] The stock solutions were prepared in dimethyl sulfoxide (DMSO, Sigma-Aldrich, St. Louis, MO, cat. D2650) at 800-fold the tested concentration and stored at -70 degrees C prior to their use. All drugs and investigational agents were tested over a range starting from a high concentration at or near the clinical Cmax and decreasing in half-log increments. If the clinical Cmax for an agent had not been determined, the highest concentration tested was 10 microM.
2.3 Cell Culture. All cells were maintained in an incubator at 37 degrees C and 5% CO2 with 95% humidity. The PDC lines were cultured according to standard operating procedures established by the NCI PDMR. All PDCs were thawed and cultured in Matrigel-coated flasks prepared with a working solution of 1X Ham's F-12 nutrient mix, without supplementation (Invitrogen, cat. 11765054), 100 U/mL penicillin-streptomycin (Invitrogen, cat. 15140122), and 2.5% Matrigel (Corning Inc., cat. 354248) for the first three passages. The 857933-349-R-J2-PDC line was cultured in 6C/Colon 1B media, which includes advanced DMEM/F-12 (Thermo Fisher Scientific, cat. 12634028), 10 mM HEPES (Thermo Fisher Scientific, cat. 15630080), 1X GlutaMAX supplement (Thermo Fisher Scientific, cat. 35050061), 0.1 mg/mL primocin (InvivoGen, cat. ant-pm-2), 10% defined fetal bovine serum, heat inactivated (HyClone Laboratories Inc., cat. SH30070.03HI), 50% L-WRN conditioned media (ATCC, cat. CRL-3276), 1.25 mM N-Acetyl-L-cysteine (Sigma-Aldrich, cat. A9165), 10 mM nicotinamide (Sigma-Aldrich, cat. N0636), 1X B-27 supplement (Thermo Fisher Scientific, cat. 17504044), 1X N-2 supplement (Thermo Fisher Scientific, cat. 17502048), 10 microM Y-27632 dihydrochloride (Tocris Bioscience, cat. 1254), and 50 ng/mL human EGF recombinant protein (Thermo Fisher Scientific, cat. PHG0311). The 485176-168-R4-J1-PDC line was cultured in Panc media, which includes all 6C/Colon 1B media components plus 100 ng/mL human FGF-10 (Thermo Fisher Scientific, cat. 100-26), 500 nM SB-431542 (Selleckchem, cat. S1067), and gastrin (Tocris, cat. 3006).
[…]
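Note: spheroids exposed to agents for one week before reading.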
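Throughout, for viability, T/C: 100% = DMSO vehicle control viability.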

Row | Structure (SMILES) | viability, T/C (compound 0.0316 µM) | viability, T/C (compound 0.1 µM) | viability, T/C (compound 0.316 µM) | viability, T/C (compound 1 µM) | viability, T/C (compound 3.16 µM) | viability, T/C (compound 10 µM) | IC50 (curve of compound) | viability, T/C (compound 0.000999 µM) | viability, T/C (compound 0.00316 µM) | viability, T/C (compound 0.00999 µM) | viability, T/C (compound 0.0999 µM) | IC50 (compound alone, run of 04/22/2024)
1 | C#Cc1c(F)ccc2cc(O)cc(-c3ncc4c(N5CC6CCC(C5)N6)nc(OCC56CCCN5CC(F)C6)nc4c3F)c12 (stereo not given) | 40.9% and 72.8% and 65.6% | 32.6% and 85% and 56.9% | 31.2% and 57.2% and 57.9% | 24.3% and 54.7% and 39.5% | 27.9% and 53.1% and 48.7% | 17.8% and 37.3% and 35.5% |  |  |  |  |  | 
2 | C=CC(=O)N1CCN(c2nc(=O)n(-c3c(C)ccnc3C(C)C)c3nc(-c4c(O)cccc4F)c(F)cc23)C(C)C1 (stereo not given) | 86.9% and 107% and 102% | 95.5% and 94.6% and 97.9% | 84.9% and 115% and 119% | 110% and 98.3% and 102% | 109% and 115% and 123% | 91% and 91.9% and 80.9% | > 10000 nM |  |  |  |  | 
3 | C=CCn1c(=O)c2cnc(Nc3ccc(N4CCN(C)CC4)cc3)nc2n1-c1cccc(C(C)(C)O)n1 | 101% and 115% and 102% | 70.8% and 67% and 66.1% | 30.4% and 29.3% and 16% | 17.9% and 15.7% and 7.78% | 12.2% and 13.9% and 7.48% | 16.8% and 14.4% and 6.61% | 181 nM and 167 nM and 145 nM |  |  |  |  | 
4 | CC(=O)O[C@H]1C(=O)[C@@]2(C)[C@H]([C@H](OC(=O)c3ccccc3)[C@]3(O)C[C@H](OC(=O)[C@H](O)[C@@H](NC(=O)c4ccccc4)c4ccccc4)C(C)=C1C3(C)C)[C@]1(OC(C)=O)CO[C@@H]1C[C@@H]2O | 55.7% and 44.9% and 22.1% | 41.9% and 46.4% and 14.2% | 27.7% and 32.3% and 8.41% | 33.1% and 30.1% and 9.52% | 22.9% and 28.9% and 11.5% | 29.9% and 31.3% and 16% | 50.9 nM and < 31.6 nM |  |  |  |  | 
5 | CC(C)(O)C1CCC(Nc2ccc3ncc(-c4cccc(C(F)(F)F)c4)n3n2)CC1 (stereo not given) | 120% and 105% and 102% | 109% and 101% and 81.3% | 107% and 114% and 115% | 110% and 112% and 125% | 15.4% and 16.3% and 6.66% | 18.2% and 18% and 8.13% | 2100 nM and 2090 nM and 1920 nM |  |  |  |  | 
6 | CC(C)n1c(=O)n(C)c2cnc3cc(F)c(-c4ccc(OCCCN5CCCCC5)nc4)cc3c21 | 115% (2×) and 100% | 96.9% and 107% and 94.7% | 114% (2×) and 80.2% | 91.4% and 95.4% and 89.3% | 96.3% and 107% and 96.1% | 95.6% and 95.5% and 84.2% | > 10000 nM |  |  |  |  | 
7 | CC1COCCN1c1cc(-c2ccnn2C)c2ccnc(-c3ccn[nH]3)c2n1 (stereo not given) | 86% and 82.9% and 82.7% | 13.9% and 30.4% and 13.4% | 10.9% and 17.4% and 9.83% | 13.5% and 21.3% and 12.2% | 16.9% and 33.8% and 15.8% | 19.7% and 38.7% and 26.2% | 56.7 nM and 64.6 nM and 55.3 nM |  |  |  |  | 
8 | CC1COCCN1c1cc(C2(O)CC3CCC(C2)O3)c2cnn(-c3ccn[nH]3)c2n1 (stereo not given) | 32.7% and 40.2% and 58% | 11% and 10.8% and 17.1% | 11.7% and 12.3% and 23.7% | 15.8% and 17.1% and 31.5% | 19.6% and 19% and 32.1% | 6.3% and 8.53% and 21.2% | < 31.6 nM and 41.8 nM |  |  |  |  | 
9 | CC1COCCN1c1cc(C2(S(C)(=N)=O)CC2)nc(-c2ccnc3[nH]ccc23)n1 (stereo not given) | 109% and 97.3% and 99.7% | 100% and 91% and 89.6% | 97.3% and 109% and 127% | 28% and 45.5% and 25.8% | 9.05% and 14.9% and 6.37% | 11.1% and 16.7% and 11.6% | 693 nM and 909 nM and 705 nM |  |  |  |  | 
10 | CCCS(=O)(=O)Nc1ccc(F)c(C(=O)c2c[nH]c3ncc(-c4ccc(Cl)cc4)cc23)c1F | 112% and 121% and 109% | 83.8% and 96.3% and 95% | 73.2% and 96.7% and 148% | 102% and 108% and 152% | 217% and 247% and 153% | 92.2% and 112% and 62.1% | > 10000 nM |  |  |  |  | 
11 | CC[C@@]1(O)C(=O)OCc2c1cc1n(c2=O)Cc2cc3c(CN(C)C)c(O)ccc3nc2-1 | 86.6% and 79.7% and 91.3% |  | 8.07% and 27.5% and 13.2% |  |  |  | 66.9 nM and 93.2 nM and 76.6 nM | 109% and 110% and 79.9% | 84.8% and 101% and 96.6% | 96.3% and 112% and 92.2% | 30.5% and 50.2% and 38% | 
12 | CCc1c2c(nc3ccc(O)cc13)-c1cc3c(c(=O)n1C2)COC(=O)[C@]3(O)CC | 6.38% and 17.9% and 8.13% |  | 3% and 10.7% and 2.39% |  |  |  | 1.51 nM and 2.59 nM and 1.71 nM | 71% and 85.3% and 74.8% | 12.1% and 39.8% and 21.3% | 7.66% and 28.1% and 9.19% | 5.13% and 11.7% and 5.42% | 
13 | CN(C)c1ccc(Nc2c3ccc(NC(=O)CCN4CCCC4)cc3nc3cc(NC(=O)CCN4CCCC4)ccc23)cc1 | 107% [middle of 12 runs] | 103% [middle of 12 runs] | 98% [middle of 12 runs] | 89.4% [middle of 12 runs] | 82.5% [middle of 12 runs] | 72.5% [middle of 12 runs] |  |  |  |  |  | > 10000 nM
